Columns and labels:
[1] = Oxidation potential of dye; assay type: physicochemical; conditions: comparative dyes
Procedure: More specifically, a test sample is dissolved to a concentration of 1×10^−4 to 1×10^−6 mol/liter in a solvent such as dimethylformamide or acetonitrile containing a supporting electrolyte such as sodium perchlorate or tetrapropylammonium perchlorate and the oxidation potential is measured as a value to SCE (saturated calomel electrode) by using a cyclic voltammetry or a direct current polarography. This value sometimes deviates on the order of tens of millivolt due to the effect of liquid junction potential, liquid resistance of sample solution, or the like, but the reproducibility of potential can be guaranteed by adding a standard sample (for example, hydroquinone).
In order to univocally specify the potential, in the present invention, the value (vs SCE) measured by a direct current polarography in a dimethylformamide (concentration of dye: 0.001 mol dm^−3) containing 0.1 mol dm^−3 of tetrapropylammonium perchlorate as the supporting electrolyte is used as the oxidation potential of the dye.

[2] = Spectral absorption characteristics of dye; assay type: physicochemical; conditions: comparative dyes
Text: The dye for use in the present invention preferably has good fastness and also has good color hue, particularly, no tailing on the long-wave side in the absorption spectrum. […]

Compound	oxidation potential [1]	I(λmax)/I(λmax+70 nm) [2]
Cc1nn(-c2ccc(S(=O)(=O)[O-])cc2)c(O)c1/N=N/c1cccc(S(=O)(=O)Nc2cc(C(=O)[O-])cc(C(=O)[O-])c2)c1.[K+].[K+].[K+] [Dye (C)]	≤ 1.0 V (vs SCE)	≤ 0.4
Direct Yellow 11 [Dye (D)]	≤ 1.0 V (vs SCE)	> 0.4

From US7311393B2, “Inkjet recording ink and method of inkjet recording” (Fujifilm Corporation, priority 2002, dated 2007)
